Measurements: patent US20230365592A1 (Agios Pharmaceuticals, Inc., priority 2022, published 2023)

target: T1, human PAH with the R408W mutation (Homo sapiens, UniProt P00439, R408W); assay: Cell Based Phenylalanine Flux Assay; details: A375 cells expressing human R408W PAH; 24 hrs compound incubation; 13C-Tyrosine by LC-MS; average where tested multiple times; read-out: AC50;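 further: after compound treatment, cells received sepiapterin plus isotope-labelled Phenylalanine for 4 hours, then labelled Tyrosine in the medium was quantified, 10-point 2-fold dilution series run in duplicate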
T1 construct: expressed in transfected cells
T1 sequence (P00439 1-452 R408W): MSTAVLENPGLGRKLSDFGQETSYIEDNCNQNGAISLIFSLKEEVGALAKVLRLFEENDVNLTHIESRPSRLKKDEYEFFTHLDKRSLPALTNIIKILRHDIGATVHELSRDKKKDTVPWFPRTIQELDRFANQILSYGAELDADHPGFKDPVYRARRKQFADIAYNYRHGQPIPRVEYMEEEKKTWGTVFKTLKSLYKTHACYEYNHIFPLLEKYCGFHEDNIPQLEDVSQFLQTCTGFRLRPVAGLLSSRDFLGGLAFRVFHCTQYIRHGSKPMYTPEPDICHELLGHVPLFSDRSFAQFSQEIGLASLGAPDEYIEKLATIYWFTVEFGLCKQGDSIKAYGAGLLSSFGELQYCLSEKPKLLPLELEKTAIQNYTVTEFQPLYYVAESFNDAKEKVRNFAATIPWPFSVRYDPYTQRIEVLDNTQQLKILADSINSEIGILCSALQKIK

Row | AC50 [nM] | Structure (SMILES)
1 | 1000 to 5000 | CC(C)(O)c1nc(C2CC2)c(C(=O)N2CCc3[nH]cnc3[C@@H]2c2cc3ccccn3n2)o1 [Example 625, (R)-(4-cyclopropyl-2-(2-hydroxypropan-2-yl)oxazol-5-yl)(4-(pyrazolo[1,5-a]pyridin-2-yl)-6,7-dihydro-1H-imidazo[4,5-c]pyridin-5(4H)-yl)methanone]
2 | 1000 to 5000 | Cn1cc(-c2nnc(C(=O)N3CCc4[nH]cnc4[C@H]3c3cc4ccccn4n3)o2)cn1 [Example 626, (S)-(5-(1-methyl-1H-pyrazol-4-yl)-1,3,4-oxadiazol-2-yl)(4-(pyrazolo[1,5-a]pyridin-2-yl)-6,7-dihydro-1H-imidazo[4,5-c]pyridin-5(4H)-yl)methanone]
3 | < 500 | CC(C)(O)c1nc(C(F)(F)F)c(C(=O)N2CCc3[nH]cnc3[C@H]2c2cc3ccccn3n2)o1 [Example 628, (S)-(2-(2-hydroxypropan-2-yl)-4-(trifluoromethyl)oxazol-5-yl)(4-(pyrazolo[1,5-a]pyridin-2-yl)-6,7-dihydro-1H-imidazo[4,5-c)pyridin-5(4H)-yl)methanone]
4 | 1000 to 5000 | CC(C)(O)c1nc(C(F)(F)F)c(C(=O)N2CCc3[nH]cnc3[C@@H]2c2cc3ccccn3n2)o1 [Example 629, (R)-(2-(2-hydroxypropan-2-yl)-4-(trifluoromethyl)oxazol-5-yl)(4-(pyrazolo[1,5-a]pyridin-2-yl)-6,7-dihydro-1H-imidazo[4,5-c]pyridin-5(4H)-yl)methanone]
5 | < 500 | O=C(c1ocnc1C(F)F)N1CCc2[nH]cnc2[C@H]1c1cc2ccccn2n1 [Example 630, (S)-(4-(difluoromethyl)oxazol-5-yl)(4-(pyrazolo[1,5-a]pyridin-2-yl)-6,7-dihydro-1H-imidazo[4,5-c]pyridin-5(4H)-yl)methanone]
6 | 1000 to 5000 | O=C(c1ocnc1C(F)F)N1CCc2[nH]cnc2[C@@H]1c1cc2ccccn2n1 [Example 631, (R)-(4-(difluoromethyl)oxazol-5-yl)(4-(pyrazolo[1,5-a]pyridin-2-yl)-6,7-dihydro-1H-imidazo[4,5-c]pyridin-5(4H)-yl)methanone]
7 | < 500 | O=C(c1oc(C2CC2)nc1C(F)F)N1CCc2[nH]cnc2[C@H]1c1cc2ccccn2n1 [Example 632, (S)-(2-cyclopropyl-4-(difluoromethyl)oxazol-5-yl)(4-(pyrazolo[1,5-a]pyridin-2-yl)-6,7-dihydro-1H-imidazo[4,5-c]pyridin-5(4H)-yl)methanone]
8 | > 5000 | O=C(c1oc(C2CC2)nc1C(F)F)N1CCc2[nH]cnc2[C@@H]1c1cc2ccccn2n1 [Example 633, (R)-(2-cyclopropyl-4-(difluoromethyl)oxazol-5-yl)(4-(pyrazolo[1,5-a]pyridin-2-yl)-6,7-dihydro-1H-imidazo[4,5-c]pyridin-5(4H)-yl)methanone]
9 | < 500 | O=C(CC1(O)CCC1)N1CCc2[nH]cnc2[C@H]1c1cc2ccccn2n1 [Example 634, (S)-2-(1-hydroxycyclobutyl)-1-(4-(pyrazolo[1,5-a]pyridin-2-yl)-6,7-dihydro-1H-imidazo[4,5-c]pyridin-5(4H)-yl)ethanone]
10 | 1000 to 5000 | O=C(CC1(O)CCC1)N1CCc2[nH]cnc2[C@@H]1c1cc2ccccn2n1 [Example 635, (R)-2-(1-hydroxycyclobutyl)-1-(4-(pyrazolo[1,5-a]pyridin-2-yl)-6,7-dihydro-1H-imidazo[4,5-c]pyridin-5(4H)-yl)ethanone]
11 | < 500 | O=C(N1CCc2[nH]cnc2[C@H]1c1cc2ccccn2n1)C(F)(F)C1(O)CCC1 [Example 638, (S)-2,2-difluoro-2-(1-hydroxycyclobutyl)-1-(4-(pyrazolo[1,5-a]pyridin-2-yl)-6,7-dihydro-1H-imidazo[4,5-c]pyridin-5(4H)-yl)ethanone]
12 | 1000 to 5000 | O=C(N1CCc2[nH]cnc2[C@@H]1c1cc2ccccn2n1)C(F)(F)C1(O)CCC1 [Example 639, (R)-2,2-difluoro-2-(1-hydroxycyclobutyl)-1-(4-(pyrazolo[1,5-a]pyridin-2-yl)-6,7-dihydro-1H-imidazo[4,5-c]pyridin-5(4H)-yl)ethanone]
13 | 500 to 1000 | O=C(c1nnc(-c2ccc(C(F)(F)F)cc2)o1)N1CCc2[nH]cnc2[C@H]1c1cc2ccccn2n1 [Example 642, (S)-(4-(pyrazolo[1,5-a]pyridin-2-yl)-6,7-dihydro-1H-imidazo[4,5-c]pyridin-5(4H)-yl)(5-(4-(trifluoromethyl)phenyl)-1,3,4-oxadiazol-2-yl)methanone]
14 | > 5000 | O=C(c1nnc(-c2ccc(C(F)(F)F)cc2)o1)N1CCc2[nH]cnc2[C@@H]1c1cc2ccccn2n1 [Example 643, (R)-(4-(pyrazolo[1,5-a]pyridin-2-yl)-6,7-dihydro-1H-imidazo[4,5-c]pyridin-5(4H)-yl)(5-(4-(trifluoromethyl)phenyl)-1,3,4-oxadiazol-2-yl)methanone]
15 | < 500 | O=C(c1oc(-c2ccccn2)nc1C(F)F)N1CCc2[nH]cnc2[C@H]1c1cc2ccccn2n1 [Example 644, (S)-(4-(difluoromethyl)-2-(pyridin-2-yl)oxazol-5-yl)(4-(pyrazolo[1,5-a]pyridin-2-yl)-6,7-dihydro-1H-imidazo[4,5-c]pyridin-5(4H)-yl)methanone]
16 | 1000 to 5000 | O=C(c1oc(-c2ccccn2)nc1C(F)F)N1CCc2[nH]cnc2[C@@H]1c1cc2ccccn2n1 [Example 645, (R)-(4-(difluoromethyl)-2-(pyridin-2-yl)oxazol-5-yl)(4-(pyrazolo[1,5-a]pyridin-2-yl)-6,7-dihydro-1H-imidazo[4,5-c]pyridin-5(4H)-yl)methanone]
17 | 1000 to 5000 | O=C(c1nnc(-c2cnn(CC(F)(F)F)c2)o1)N1CCc2[nH]cnc2[C@H]1c1cc2ccccn2n1 [Example 646, (S)-(4-(pyrazolo[1,5-a]pyridin-2-yl)-6,7-dihydro-1H-imidazo[4,5-c]pyridin-5(4H)-yl)(5-(1-(2,2,2-trifluoroethyl)-1H-pyrazol-4-yl)-1,3,4-oxadiazol-2-yl)methanone]
18 | > 5000 | O=C(c1nnc(-c2cnn(CC(F)(F)F)c2)o1)N1CCc2[nH]cnc2[C@@H]1c1cc2ccccn2n1 [Example 647, (R)-(4-(pyrazolo[1,5-a]pyridin-2-yl)-6,7-dihydro-1H-imidazo[4,5-c]pyridin-5(4H)-yl)(5-(1-(2,2,2-trifluoroethyl)-1H-pyrazol-4-yl)-1,3,4-oxadiazol-2-yl)methanone]
19 | < 500 | O=C(c1nnc(-c2ccc(F)c(F)c2)o1)N1CCc2[nH]cnc2[C@H]1c1cc2ccccn2n1 [Example 648, (S)-(5-(3,4-difluorophenyl)-1,3,4-oxadiazol-2-yl)(4-(pyrazolo[1,5-a]pyridin-2-yl)-6,7-dihydro-1H-imidazo[4,5-c]pyridin-5(4H)-yl)methanone]
20 | > 5000 | O=C(c1nnc(-c2ccc(F)c(F)c2)o1)N1CCc2[nH]cnc2[C@@H]1c1cc2ccccn2n1 [Example 649, (R)-(5-(3,4-difluorophenyl)-1,3,4-oxadiazol-2-yl)(4-(pyrazolo[1,5-a]pyridin-2-yl)-6,7-dihydro-1H-imidazo[4,5-c]pyridin-5(4H)-yl)methanone]
21 | 1000 to 5000 | O=C(c1nnc(-c2cnn(C(F)F)c2)o1)N1CCc2[nH]cnc2[C@H]1c1cc2ccccn2n1 [Example 650, (S)-(5-(1-(difluoromethyl)-1H-pyrazol-4-yl)-1,3,4-oxadiazol-2-yl)(4-(pyrazolo[1,5-a]pyridin-2-yl)-6,7-dihydro-1H-imidazo[4,5-c]pyridin-5(4H)-yl)methanone]
22 | 1000 to 5000 | O=C(c1nnc(-c2cnn(C(F)F)c2)o1)N1CCc2[nH]cnc2[C@@H]1c1cc2ccccn2n1 [Example 651, (R)-(5-(1-(difluoromethyl)-1H-pyrazol-4-yl)-1,3,4-oxadiazol-2-yl)(4-(pyrazolo[1,5-a]pyridin-2-yl)-6,7-dihydro-1H-imidazo[4,5-c]pyridin-5(4H)-yl)methanone]
23 | < 500 | O=C(c1nnc(-c2ccc(F)cc2F)o1)N1CCc2[nH]cnc2[C@H]1c1cc2ccccn2n1 [Example 652, (S)-(5-(2,4-difluorophenyl)-1,3,4-oxadiazol-2-yl)(4-(pyrazolo[1,5-a]pyridin-2-yl)-6,7-dihydro-1H-imidazo[4,5-c]pyridin-5(4H)-yl)methanone]
24 | > 5000 | O=C(c1nnc(-c2ccc(F)cc2F)o1)N1CCc2[nH]cnc2[C@@H]1c1cc2ccccn2n1 [Example 653, (R)-(5-(2,4-difluorophenyl)-1,3,4-oxadiazol-2-yl)(4-(pyrazolo[1,5-a]pyridin-2-yl)-6,7-dihydro-1H-imidazo[4,5-c]pyridin-5(4H)-yl)methanone]
25 | < 500 | Cc1cc(F)ccc1-c1nnc(C(=O)N2CCc3[nH]cnc3[C@H]2c2cc3ccccn3n2)o1 [Example 654, (S)-(5-(4-fluoro-2-methylphenyl)-1,3,4-oxadiazol-2-yl)(4-(pyrazolo[1,5-a]pyridin-2-yl)-6,7-dihydro-1H-imidazo[4,5-c]pyridin-5(4H)-yl)methanone]
26 | < 500 | O=C(c1ccnn1C(F)F)N1CCc2[nH]cnc2[C@H]1c1cc2ccccn2n1 [Example 656, (S)-(1-(difluoromethyl)-1H-pyrazol-5-yl)(4-(pyrazolo[1,5-a]pyridin-2-yl)-6,7-dihydro-1H-imidazo[4,5-c]pyridin-5(4H)-yl)methanone]
27 | > 5000 | O=C(c1ccnn1C(F)F)N1CCc2[nH]cnc2[C@@H]1c1cc2ccccn2n1 [Example 657, (R)-(1-(difluoromethyl)-1H-pyrazol-5-yl)(4-(pyrazolo[1,5-a]pyridin-2-yl)-6,7-dihydro-1H-imidazo[4,5-c]pyridin-5(4H)-yl)methanone]
